Reference: US20120245159A1, “COMPOSITION AND METHOD FOR CONTROLLING ARTHROPOD PESTS” (SUMITOMO CHEMICAL COMPANY, LIMITED, priority 2009, published 2012)

Columns and labels:
[1] = tested on: cotton aphid (Aphis gossypii); experiment: Test Example 3: pesticidal effect against cotton aphid by spray treatment (cucumber leaf disk, control value); assay type: in vivo; details: composition of the compound and clothianidin; spray over cucumber leaf disk, 25° C., 5 days; summary of Table 49
[2] = tested on: brown planthopper (Nilaparvata lugens); experiment: Test Example 4: pesticidal effect against brown planthopper by foliage spray treatment of rice (control value); assay type: in vivo; details: foliage spray of rice seedlings, third-instar larvae, after 5 days
[3] = composition of the compound and clothianidin, summary of Table 50
[4] = composition of the compound and dinotefuran, summary of Table 54
[5] = composition of the compound and imidacloprid, summary of Table 53
[6] = composition of the compound and nitenpyram, summary of Table 51
[7] = composition of the compound and thiamethoxam, summary of Table 52

CC(C)COc1cnccc1-c1nc2cc(C(F)(F)F)ccc2o1 [Compound 116, 2-(3-isobutoxypyridin-4-yl)-5-(trifluoromethyl)benzoxazole]
high pesticidal efficacy: pesticidal efficacy against cotton aphid (Aphis gossypii) [1] | pesticidal efficacy against brown planthopper (Nilaparvata lugens) [2, 3] | pesticidal efficacy against brown planthopper (Nilaparvata lugens) [2, 4] | pesticidal efficacy against brown planthopper (Nilaparvata lugens) [2, 5] | pesticidal efficacy against brown planthopper (Nilaparvata lugens) [2, 6] | pesticidal efficacy against brown planthopper (Nilaparvata lugens) [2, 7]

CC(C)(C)COc1cnccc1-c1nc2cc(C(F)(F)F)ccc2o1 [Compound 117, 2-[3-(2,2-dimethylpropoxy)pyridin-4-yl]-5-(trifluoromethyl)benzoxazole]
high pesticidal efficacy: pesticidal efficacy against cotton aphid (Aphis gossypii) [1] | pesticidal efficacy against brown planthopper (Nilaparvata lugens) [2, 3] | pesticidal efficacy against brown planthopper (Nilaparvata lugens) [2, 4] | pesticidal efficacy against brown planthopper (Nilaparvata lugens) [2, 5] | pesticidal efficacy against brown planthopper (Nilaparvata lugens) [2, 6] | pesticidal efficacy against brown planthopper (Nilaparvata lugens) [2, 7]

FC(F)(F)COc1cnccc1-c1nc2cc(C(F)(F)F)cnc2o1 [Compound 163]
high pesticidal efficacy: pesticidal efficacy against cotton aphid (Aphis gossypii) [1] | pesticidal efficacy against brown planthopper (Nilaparvata lugens) [2, 3] | pesticidal efficacy against brown planthopper (Nilaparvata lugens) [2, 4] | pesticidal efficacy against brown planthopper (Nilaparvata lugens) [2, 5] | pesticidal efficacy against brown planthopper (Nilaparvata lugens) [2, 6] | pesticidal efficacy against brown planthopper (Nilaparvata lugens) [2, 7]
